Measurements: patent publication US20220249687A1, “BIS(2-HALOACETAMIDO)-COMPOUNDS FOR USE AS LINKING AGENTS AND RESULTANT PRODUCTS WHICH COMPRISE ANTIBODIES, HALF-ANTIBODIES AND ANTIBODY FRAGMENTS” (THE UNIVERSITY OF BATH, priority 2019, published 2022)

Experiment: Reactivity of linker compounds with glutathione
Details: pH=7, RT
Protocol: Relative reactivities of the compounds were evaluated towards the small thiol containing peptide glutathione (pH=7, RT). […] Without wishing to be bound by any particular theory, the inventors speculate that the difference in reactivity and stability of the ortho and meta compounds may be attributed to differences in the 3D structures of each compound. Methyl 3,5-bis(2-chloroacetamido)benzoate (1) is predicted to have a planar conformation. Thus, steric hindrance could slow the backside attack of thiolate at the carbon attached to halogen (through an SN2 mechanism). This might explain the greater reactivity of ortho compounds like methyl 3,4-bis(2-chloroacetamido)benzoate (4). Compound (4) is not planar and might afford a more accessible carbon for backside attack.
The reactivity of the linker compounds of the present invention was tested by reaction with glutathione. The following representative reactions are described. Analogous reactions were performed with amide functionalised linker compounds.
The inventors compared the reactivity of various linker compounds of the invention by determining the percentage remaining of the bis-haloacetamide derivatives 14-17 in the presence of glutathione (2.2 equiv.) in aqueous phosphate buffer (100 mM, pH 7.5).

COC(=O)c1ccc(NC(=O)CCl)c(NC(=O)CCl)c1 [Compound 4, methyl 3,4-bis(2-chloroacetamido)benzoate]
relative reactivity towards glutathione (reaction rate): react significantly faster than the 3,5-bis-Cl compound (1)
